Source: patent publication US20060069132A1, “Azolecarboxamide herbicides” (priority 2004, published 2006)

Key:
[1] = tested on: wheat; test: Test B postemergence herbicide test; assay type: in vivo, Triticum aestivum; parameters: key to Wheat plant response rating: 0 = no effect, 100 = complete control; settings: postemergence
Procedure, shortened: (§1)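 Treated at 2-leaf (paddy) or 1–4-leaf, 2–18 cm (postemergence); greenhouse 13–15 d; visual score vs control, 0 none to 100 complete control; dash = not tested.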

[2] = tested on: morningglory; test: Test B pre-/postemergence herbicide test; assay type: in vivo, Ipomoea coccinea; settings: for Morningglory plant response rating: postemergence
Procedure, shortened: (§2)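 Herbicidal effect was judged by eye on a 0–100 scale after plants stood 13 to 15 days in the greenhouse following pre- or postemergence treatment with surfactant-containing formulations.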

[3] = tested on: Surinam grass; test: Test B pre-/postemergence herbicide test; assay type: in vivo, Urochloa decumbens; settings: for Surinam Grass plant response rating: postemergence
Procedure, shortened: as §2

[4] = tested on: morningglory; test: Test A pre-/postemergence herbicide test; assay type: in vivo, Ipomoea spp.
Procedure, shortened: (§3)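 Visual injury rating on a 0–100 scale (0 no effect, 100 complete control) versus untreated controls, about ten days after treatment in greenhouse. Pre: directed soil spray onto seeded sandy loam. Post: spray to runoff on plants 2–10 cm tall at one- to two-leaf stage.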

[5] = tested on: velvetleaf; test: Test A pre-/postemergence herbicide test; assay type: in vivo, Abutilon theophrasti
Procedure, shortened: as §3

[6] = tested on: giant foxtail; test: Test B pre-/postemergence herbicide test; assay type: in vivo, Setaria faberi; settings: for Foxtail, Giant plant response rating: postemergence
Procedure, shortened: as §2

[7] = tested on: pigweed; test: Test B pre-/postemergence herbicide test; assay type: in vivo, Amaranthus retroflexus; settings: for Pigweed plant response rating: postemergence
Procedure, shortened: as §2

[8] = tested on: barnyardgrass; test: Test B pre-/postemergence herbicide test; assay type: in vivo, Echinochloa crus-galli; settings: for Barnyardgrass plant response rating: postemergence
Procedure, shortened: as §2

[9] = tested on: rice; test: Test B flooded paddy test; assay type: in vivo, Oryza sativa; settings: 1000 g ai/ha, scale 0 to 100 (0 no effect, 100 complete control)
Procedure, shortened: as §1

[10] = tested on: corn; test: Test B pre-/postemergence herbicide test; assay type: in vivo, Zea mays; settings: for Corn plant response rating: postemergence
Procedure, shortened: as §2

[11] = tested on: barnyardgrass; test: Test A pre-/postemergence herbicide test; assay type: in vivo, Echinochloa crus-galli
Procedure, shortened: as §3

[12] = tested on: barnyardgrass; test: Test B flooded paddy test; assay type: in vivo, Echinochloa crus-galli; settings: 1000 g ai/ha, scale 0 to 100 (0 no effect, 100 complete control)
Procedure, shortened: as §1

[13] = tested on: ducksalad; test: Test B flooded paddy test; assay type: in vivo, Heteranthera limosa; settings: 1000 g ai/ha, scale 0 to 100 (0 no effect, 100 complete control)
Procedure, shortened: as §1

[14] = tested on: velvetleaf; test: Test B pre-/postemergence herbicide test; assay type: in vivo, Abutilon theophrasti; settings: for Velvetleaf plant response rating: postemergence
Procedure, shortened: as §2

[15] = tested on: cocklebur; test: Test B pre-/postemergence herbicide test; assay type: in vivo, Xanthium strumarium; settings: for Cocklebur plant response rating: postemergence
Procedure, shortened: as §2

[16] = tested on: redroot pigweed; test: Test A pre-/postemergence herbicide test; assay type: in vivo, Amaranthus retroflexus
Procedure, shortened: as §3

[17] = tested on: small flower umbrella sedge; test: Test B flooded paddy test; assay type: in vivo, Cyperus difformis; settings: 1000 g ai/ha, scale 0 to 100 (0 no effect, 100 complete control)
Procedure, shortened: as §1

[18] = tested on: large crabgrass; test: Test A pre-/postemergence herbicide test; assay type: in vivo, Digitaria sanguinalis
Procedure, shortened: as §3

[19] = tested on: large crabgrass; test: Test B pre-/postemergence herbicide test; assay type: in vivo, Digitaria sanguinalis; settings: for Crabgrass, Large plant response rating: postemergence
Procedure, shortened: as §2

[20] = tested on: lambsquarters; test: Test B pre-/postemergence herbicide test; assay type: in vivo, Chenopodium album; settings: for Lambsquarters plant response rating: postemergence
Procedure, shortened: as §2

[21] = tested on: giant foxtail; test: Test A pre-/postemergence herbicide test; assay type: in vivo, Setaria faberi
Procedure, shortened: as §3

[22] = tested on: blackgrass; test: Test B postemergence herbicide test; assay type: in vivo, Alopecurus myosuroides; settings: postemergence
Procedure, shortened: as §1

[23] = tested on: wild oat; test: Test B postemergence herbicide test; assay type: in vivo, Avena fatua; settings: postemergence
Procedure, shortened: as §1

[24] = tested on: rice; test: Test B pre-/postemergence herbicide test; assay type: in vivo, Oryza sativa; settings: 0 = no effect, 100 = complete control, preemergence
Procedure, shortened: as §2

[25] = 125 g ai/ha, visual rating, scale 0 (no effect) to 100 (complete control)
[26] = 500 g ai/ha, scale 0 to 100, 0 is no effect, 100 is complete control
[27] = 125 g ai/ha, 0 = no effect, 100 = complete control, preemergence
[28] = 500 g ai/ha, visual rating, 0 = no effect, 100 = complete control, preemergence
[29] = Postemergence, 500 g ai/ha, 0 to 100 scale, 0 no effect, 100 complete control
[30] = Postemergence, 2000 g ai/ha, 0 to 100 scale, 0 no effect, 100 complete control
[31] = Preemergence, 2000 g ai/ha, visual rating, 0 to 100 scale (0 no effect, 100 complete control)
[32] = preemergence, 500 g ai/ha, visual injury, 0 to 100 scale (0 no effect, 100 complete control)

C#CCNC(=O)c1ccc(F)c(NC(=O)c2cc(C(C)(C)C)nn2CC)n1 [Compound 279]
Wheat plant response rating [1, 25]: 30 | Wheat plant response rating [1, 26]: 30 | Morningglory plant response rating (0 to 100 scale) [2, 27]: 0 | Plant response rating, Morningglory [2, 28]: 0 | Morningglory plant response rating [2, 25]: 0 | Morningglory plant response rating [2, 26]: 20 | Surinam Grass plant response rating (0 to 100 scale) [3, 27]: 0 | Plant response rating, Surinam Grass [3, 28]: 40 | Surinam Grass plant response rating [3, 25]: 10 | Surinam Grass plant response rating [3, 26]: 10 | Morningglory plant response rating [4, 29]: 5 | Plant response rating, Morningglory [4, 30]: 5 | Morningglory plant response rating [4, 31]: 20 | Morningglory plant response rating [4, 32]: 10 | Velvetleaf plant response rating [5, 29]: 20 | Plant response rating, Velvetleaf [5, 30]: 20 | Velvetleaf plant response rating [5, 31]: 30 | Velvetleaf plant response rating [5, 32]: 10 | Foxtail, Giant plant response rating (0 to 100 scale) [6, 27]: 10 | Plant response rating, Foxtail, Giant [6, 28]: 30 | Foxtail, Giant plant response rating [6, 25]: 0 | Foxtail, Giant plant response rating [6, 26]: 0 | Pigweed plant response rating (0 to 100 scale) [7, 27]: 90 | Plant response rating, Pigweed [7, 28]: 100 | Pigweed plant response rating [7, 25]: 30 | Pigweed plant response rating [7, 26]: 30 | Barnyardgrass plant response rating (0 to 100 scale) [8, 27]: 20 | Plant response rating, Barnyardgrass [8, 28]: 40 | Barnyardgrass plant response rating [8, 25]: 0 | Barnyardgrass plant response rating [8, 26]: 10 | Rice plant response rating [9]: 40 | Corn plant response rating (0 to 100 scale) [10, 27]: 0 | Plant response rating, Corn [10, 28]: 0 | Corn plant response rating [10, 25]: 10 | Corn plant response rating [10, 26]: 10 | Barnyardgrass plant response rating [11, 29]: 20 | Plant response rating, Barnyardgrass [11, 30]: 40 | Barnyardgrass plant response rating [11, 31]: 55 | Barnyardgrass plant response rating [11, 32]: 5 | Barnyardgrass plant response rating [12]: 10 | Ducksalad plant response rating [13]: 60 | Velvetleaf plant response rating (0 to 100 scale) [14, 27]: 0 | Plant response rating, Velvetleaf [14, 28]: 20 | Velvetleaf plant response rating [14, 25]: 10 | Velvetleaf plant response rating [14, 26]: 10 | Cocklebur plant response rating (0 to 100 scale) [15, 27]: 0 | Plant response rating, Cocklebur [15, 28]: 0 | Cocklebur plant response rating [15, 25]: 0 | Cocklebur plant response rating [15, 26]: 20 | Pigweed plant response rating [16, 29]: 70 | Plant response rating, Pigweed [16, 30]: 60 | Pigweed plant response rating [16, 31]: 100 | Pigweed plant response rating [16, 32]: 95 | Sedge, Umbrella plant response rating [17]: 60 | Crabgrass, Large plant response rating [18, 29]: 10 | Plant response rating, Crabgrass, Large [18, 30]: 20 | Crabgrass, Large plant response rating [18, 31]: 70 | Crabgrass, Large plant response rating [18, 32]: 70 | Crabgrass, Large plant response rating (0 to 100 scale) [19, 27]: 10 | Plant response rating, Crabgrass, Large [19, 28]: 80 | Crabgrass, Large plant response rating [19, 25]: 0 | Crabgrass, Large plant response rating [19, 26]: 10 | Lambsquarters plant response rating (0 to 100 scale) [20, 27]: 100 | Plant response rating, Lambsquarters [20, 28]: 100 | Lambsquarters plant response rating [20, 25]: 10 | Lambsquarters plant response rating [20, 26]: 20 | Foxtail, Giant plant response rating [21, 29]: 10 | Plant response rating, Foxtail, Giant [21, 30]: 20 | Foxtail, Giant plant response rating [21, 31]: 60 | Foxtail, Giant plant response rating [21, 32]: 25 | Blackgrass plant response rating [22, 25]: 10 | Blackgrass plant response rating [22, 26]: 30 | Oat, Wild plant response rating [23, 25]: 20 | Oat, Wild plant response rating [23, 26]: 20 | Rice plant response rating (0 to 100 scale) ([24]; 125 g ai/ha): 20 | Plant response rating, Rice ([24]; 500 g ai/ha, visual rating): 50
